Reference: PubChem BioAssay AID330 (DTP/NCI, 2004)
“And” between values parts separate entries of the source, which are not always exact repeats. Identical values can stand only once. Inconclusive results and toxic doses are left out.

System: P388 leukemia ip, CD2F1 mice, survival T/C
Test: NCI In Vivo Anticancer Drug Screen. Data for tumor model P388 Leukemia (intraperitoneal) in CD2F1 (CDF1) mice
Details: endpoint: median survival time, higher = longer survival
Procedure, shortened: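 Mice carrying the transplanted tumor received test compound or vehicle. Survival was recorded in each group, and the value is the treated-group measurement divided by that of the vehicle-treated control group.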

[1] = dose: 60.0 mg/kg/injection, schedule: Q01DX005 (ip), vehicle: saline with Tween-80
[2] = dose: 120.0 mg/kg/injection, schedule: Q01DX005 (ip), vehicle: saline with Tween-80
[3] = dose: 240.0 mg/kg/injection, schedule: Q01DX005 (ip), vehicle: saline with Tween-80
[4] = dose: 50.0 mg/kg/injection, schedule: Q01DX009 (ip), vehicle: saline with Tween-80
[5] = dose: 100.0 mg/kg/injection, schedule: Q01DX009 (ip), vehicle: saline with Tween-80
[6] = dose: 200.0 mg/kg/injection, schedule: Q01DX009 (ip), vehicle: saline with Tween-80
[7] = dose: 50.0 mg/kg/injection, schedule: Q01DX005 (ip), vehicle: saline with Tween-80
[8] = dose: 100.0 mg/kg/injection, schedule: Q01DX005 (ip), vehicle: saline with Tween-80
[9] = dose: 200.0 mg/kg/injection, schedule: Q01DX005 (ip), vehicle: saline with Tween-80
[10] = dose: 50.0 mg/kg/injection, schedule: Q01DX009 (ip), vehicle: saline
[11] = dose: 200.0 mg/kg/injection, schedule: Q01DX009 (ip), vehicle: saline

## Nc1nccc(CCc2ccccc2)n1
[1]
  T/C: 101 % of control
[2]
  T/C: 95 % of control

## Nc1nc2c(C(=O)c3cccs3)nnn2c2cccc(Cl)c12
[1]
  T/C: 99 % of control
[2]
  T/C: 100 % of control
[3]
  T/C: 104 % of control

## C=C(C)C(C(=O)OCC)C(=O)OCC
[4]
  T/C: 101 % of control
[5]
  T/C: 107 % of control
[6]
  T/C: 110 % of control

## O=C1NC(=O)C(=Cc2ccc([N+](=O)[O-])cc2)C(=O)N1
dose: 50.0 mg/kg/injection, schedule: Q01DX005 (ip), vehicle: Klucel (hydroxypropylcellulose) (HPC)
  T/C: 107 % of control
dose: 100.0 mg/kg/injection, schedule: Q01DX005 (ip), vehicle: Klucel (hydroxypropylcellulose) (HPC)
  T/C: 99 % of control
dose: 200.0 mg/kg/injection, schedule: Q01DX005 (ip), vehicle: Klucel (hydroxypropylcellulose) (HPC)
  T/C: 104 % of control

## O=C1CCC(c2n[nH]c(=S)o2)N1Cc1ccccc1 (stereo unspecified)
[1]
  T/C: 98 % of control
[2]
  T/C: 100 % of control
[3]
  T/C: 103 % of control

## COC(=O)[C@H]1O[C@H]1c1cc[n+]([O-])cc1
dose: 25.0 mg/kg/injection, schedule: Q01DX005 (ip), vehicle: water
  T/C: 101 % of control
dose: 50.0 mg/kg/injection, schedule: Q01DX005 (ip), vehicle: water
  T/C: 102 % of control
dose: 100.0 mg/kg/injection, schedule: Q01DX005 (ip), vehicle: water
  T/C: 105 % of control
dose: 200.0 mg/kg/injection, schedule: Q01DX005 (ip), vehicle: water
  T/C: 109 % of control

## C=C1CC2(CCS(=O)(=O)c3ccccc32)OC1=O (stereo unspecified)
dose: 12.5 mg/kg/injection, schedule: Q04DX002 (ip), vehicle: saline with Tween-80
  T/C: 105 % of control
dose: 25.0 mg/kg/injection, schedule: Q04DX002 (ip), vehicle: saline with Tween-80
  T/C: 109 % of control
dose: 50.0 mg/kg/injection, schedule: Q04DX002 (ip), vehicle: saline with Tween-80
  T/C: 116 % of control

## COc1cc2ccc(CC(N)=O)cc2cc1OC
[5]
  T/C: 118 % of control
[6]
  T/C: 109 % of control

## CSc1nc(Cl)c(Br)c(N2CC2)n1
[7]
  T/C: 100 % of control
[8]
  T/C: 107 % of control

## c1ccc(/C(=N\Nc2ccccn2)c2ccccn2)cc1
[7]
  T/C: 112 % of control
[8]
  T/C: 117 % of control
[9]
  T/C: 108 % of control

## CC[CH2][Sn](=[O])[c]1ccccc1
dose: 12.5 mg/kg/injection, schedule: Q01DX009 (ip), vehicle: saline
  T/C: 99 % of control
dose: 25.0 mg/kg/injection, schedule: Q01DX009 (ip), vehicle: saline
  T/C: 105 % of control
[10]
  T/C: 98 % of control and 123 % of control
[11]
  T/C: 96 % of control

## COC(=O)C1(C2(C(=O)OC)NC(C)=C(c3ccccc3)C(=O)O2)NC(C)=C(c2ccccc2)C(=O)O1 (stereo unspecified)
[7]
  T/C: 97 % of control
[8]
  T/C: 100 % of control
[9]
  T/C: 91 % of control

## O=S(=O)(c1cccc(C(F)(F)F)c1)N(CCCCN(S(=O)(=O)c1cccc(C(F)(F)F)c1)S(=O)(=O)c1cccc(C(F)(F)F)c1)S(=O)(=O)c1cccc(C(F)(F)F)c1
[1]
  T/C: 97 % of control
[2]
  T/C: 93 % of control
[3]
  T/C: 90 % of control

## COc1ccc(S(=O)(=O)NN)cc1
dose: 25.0 mg/kg/injection, schedule: Q01DX009 (ip), vehicle: other
  T/C: 106 % of control
dose: 50.0 mg/kg/injection, schedule: Q01DX009 (ip), vehicle: other
  T/C: 103 % of control
dose: 100.0 mg/kg/injection, schedule: Q01DX009 (ip), vehicle: other
  T/C: 104 % of control
dose: 200.0 mg/kg/injection, schedule: Q01DX009 (ip), vehicle: other
  T/C: 106 % of control

## Clc1ccc(OCC(Cn2ccnc2)c2ccc(Cl)cc2)cc1 (stereo unspecified)
[4]
  T/C: 100 % of control
[5]
  T/C: 100 % of control

## CCN(CCCO)CCCO
[10]
  T/C: 102 % of control
dose: 100.0 mg/kg/injection, schedule: Q01DX009 (ip), vehicle: saline
  T/C: 93 % of control
[11]
  T/C: 95 % of control

## O=S1(=O)Oc2c(Cl)cc(Cl)cc2S(=O)(=O)Oc2c(Cl)cc(Cl)cc21
[1]
  T/C: 93 % of control
[2]
  T/C: 94 % of control
[3]
  T/C: 86 % of control

## N#CC(C#N)=C(O)/C(=C/c1ccccc1[N+](=O)[O-])NC(=O)c1ccccc1
[1]
  T/C: 106 % of control
[2]
  T/C: 104 % of control
[3]
  T/C: 92 % of control

## Cn1c(=O)c2nc(-c3ccc(Cl)cc3)c(-c3ccc(Cl)cc3)nc2n(C)c1=O
dose: 50.0 mg/kg/injection, schedule: Q01DX001 (ip), vehicle: saline with Tween-80
  T/C: 102 % of control
dose: 100.0 mg/kg/injection, schedule: Q01DX001 (ip), vehicle: saline with Tween-80
  T/C: 102 % of control
dose: 200.0 mg/kg/injection, schedule: Q01DX001 (ip), vehicle: saline with Tween-80
  T/C: 110 % of control
